Here are results for 1 compound from patent US11040949B2, “Compounds affecting pigment production and methods for treatment of bacterial diseases” (Versitech Limited, priority 2017, dated 2021).

In experiment [1] the test system is methicillin-resistant S. aureus (MRSA). Kind of experiment: MRSA skin infection, wound closure. Format: in vivo, mice. The following applies: for wound healing compared with mupirocin and linezolid: 30 mg/kg oral BID for 7 days. The method, then: FIG. 11B are photos from the top view of mice with skin infection caused by MRSA before (at Day 0) and after different treatments (at Day 7): top left received 2% mupirocin via topical BID for 7 days; top right received 100 mg/kg linezolid via oral BID for 7 days; bottom received 30 mg/kg IM032 via oral BID for 7 days.
Visual wound healing/closure in different treatment groups of mice can be observed in FIG. 11B.

The next experiment has as its system S. aureus FPR3757. Kind of experiment: IM032 staphyloxanthin production inhibition. The experiment is classed as cell-based. Conditions: Staphylococcus aureus. As for the experimental part:
(§1) This study aimed to evaluate IM032 for its in vitro efficacy to inhibit the production of staphyloxanthin in different strains of S. aureus.
(§2) The negative control was dimethyl sulfoxide (DMSO) which was used to prepare stock solutions and dilutions; positive control in this test was S. aureus strain FPR3757 treated with IM032.
(§3) The test item was dissolved at 44.9 mg/mL in DMSO at 37° C., aliquoted into several tubes, and stored at −20° C. until use. On the day of testing, a stock solution was serially diluted to testing concentrations with DMSO. All solutions were vortexed and mixed with a pipette to achieve homogeneity immediately before dilution. A correction factor for purity was not applied to the test item preparations.
(§4) Each test item solution (6 μL) was combined with 0.6 mL of S. aureus culture in brain heart infusion broth (CFU per well=1×10^7). 12-wells repeats were performed for each concentration in 96-well 2-mL plates. The plates were then incubated in a shaker at 37° C., 250 rpm for 24 hours. The bacteria were centrifuged at 4,000 rpm for 10 min. Next, the bacteria from 4-wells were combined and were washed twice with PBS. Staphyloxanthin was extracted with 300 μL of methanol in a water bath at 60° C. for 1 hour. After centrifugation, 100 μL of supernatant was transferred to a 96-well cell culture plate and OD450 was measured. The relative pigment production at each tested concentration was calculated as follows: […]
(§5) The IC50 for each test was determined based on the calculated inhibition ratio from above with Prism 6.0 by employing a non-linear regression (four parameters) fitting method with assigned bottom and top at 0.05 and 0.95 respectively. The IC50 presented is the best-fit value.
(§6) S. aureus strains (ATCC29213, HG003, Mu3, SH1000, and COL) were treated with IM032 at final concentrations of 4,000, 1,000, 250, 63, 16, 4 and 1 nM (FIG. 7A). S. aureus strains (JE2, USA300-3, LAC, ST239III and Newman) were treated with IM032 at final concentrations of 250, 63, 16, 4, 1, 0.2 and 0.06 nM (FIG. 7B). […] The determined IC50 values of the tested strains range from 1.2 to 70 nM (Tables 6 and 7).

In the next experiment the test system is S. aureus USA300-3. Kind of experiment: IM032 staphyloxanthin production inhibition. The experiment is classed as cell-based. Conditions: Staphylococcus aureus. The method, then:
as §1, §2, §3, §4, §5, §6

Another experiment concerns S. aureus HG003. Put plainly: IM032 staphyloxanthin production inhibition. The experiment is classed as cell-based. Conditions: Staphylococcus aureus, MSSA. The method, then:
as §1, §2, §3, §4, §5, §6

For experiment [2], the system named is MRSA USA 300 ATCC BAA-1717. Kind of experiment: Mouse (LD0-20) bacteremia model. The experiment is classed as in vivo, BALB/c mice. The following applies: IM032 0.3-30 mg/kg PO BID for 7 days; sacrificed at 168 h (Day 7). The method, then:
Efficacy of IM032 in a Mouse (LD0-20) Bacteremia Model Infected with Methicillin-Resistant Staphylococcus (MRSA USA300) (BAA-1717)
A bacterial strain, USA 300 MRSA BAA-1717, was used to infect BALB/c (female). Test animals were intravenously (IV) inoculated with MRSA ATCC BAA-1717 at a target density of 1×10^6 CFU/mouse. Test substance, IM032 at 0, 0.3, 1, 3, 10, and 30 mg/kg, was administered orally (PO) twice daily (BID) for a total of 7 dosing days.
The reference agents, vancomycin at 3 mg/kg was administered IV once (QD) at 1 h after infection for 7 consecutive days.
With reference to FIG. 9, the animals were IV inoculated with MRSA USA 300 ATCC BAA-1717 at 1.02×10^6 CFU/mouse. IM032 at 0.3, 1, 3, 10, and 30 mg/kg were orally (PO) administrated twice daily (BID) at 1 and 7 h after the infection on Day 1, and then twice daily at 6-hour intervals in the next 6 days for a total of 7 days of dosing. Vancomycin, at 3 mg/kg, was administered intravenously (IV) at 1 h after the infection on Day 1 and then once a day in the next 6 days for a total of 7 days of dosing. […] Statistical significance compared to the respective vehicle control was determined by unpaired student t-tests. […]
With reference to FIG. 10, bacterial density in lung and liver were determined. […] Statistical significance compared to the respective vehicle control was determined by unpaired student t-tests. […]

In the case of `O=C(/C=C/c1ccccc1Br)Nc1ccc(S(=O)(=O)N2CCCCC2)cc1` [NP16-XL-016, 3-(6-bromophenyl)-N-[4-(1-piperidine-1-sulfonyl)phenyl]-acrylamide], the results for the “wound healing compared with mupirocin and linezolid” value in experiment [1] (listed as ALS-4) and in experiment [1] (listed as IM032) were “statistically significant improvement in wound healing” and “best visual wound healing”, respectively. The “percentage of wound closure” value in experiment [1] (30 mg/kg oral twice a day, Day 7) is 63.8%. Besides, the IC50 (as a rule, the concentration needed to halve the response being measured) with S. aureus FPR3757 (FPR3757, FPR3757, previous study) worked out at 17 nM; in the experiment on S. aureus FPR3757 (MRSA / USA300, Table 8, USA300 (FPR-3757), CA-MRSA) it was 30.8 ± 5 nM; in the experiment with S. aureus FPR3757 (MRSA, Table 6, first experiment, FPR3757, MRSA (CA), positive control), 20 nM; in the experiment with S. aureus FPR3757 (MRSA, Table 7, second experiment, FPR3757, MRSA (CA), positive control), 28 nM; with S. aureus USA300-3 (MRSA / USA300, Table 7, USA300-3, MRSA (HA)), 27 nM; in the experiment on S. aureus USA300-3 (MRSA / USA300, Table 8, USA300-3, HA-MRSA) it was 42.8 ± 6 nM. For the same compound, the results for the IC50 in the experiment with S. aureus HG003 (Table 6) and in the experiment with S. aureus HG003 (Table 8) were 46 nM and 54.4 ± 4 nM, respectively. Besides, the “bacteria count across major organs” value in experiment [2] is “statistically significant reduction in bacteria count across major organs”.
